Reference: ChEMBL document CHEMBL1201861, “Genomics of Drug Sensitity in Cancer screening data, Wellcome Trust Sanger Institute”

Tests used:
Test in all cases: cells
[1] = system: NCI-H226; assay type: functional, cell-based, Homo sapiens; conditions: Homo sapiens, NCI-H226;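 further: cell viability read-out used to gauge growth inhibition of the cells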
Description: SANGER: Inhibition of human NCI-H226 cell growth in a cell viability assay.

[2] = system: QIMR-WIL; assay type: functional, cell-based, Homo sapiens; conditions: Homo sapiens, QIMR-WIL;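 further: growth inhibition of QIMR-WIL cells, read out with a cell viability assay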
Description: SANGER: Inhibition of human QIMR-WIL cell growth in a cell viability assay.

[3] = system: SJSA-1; assay type: functional, cell-based, Homo sapiens; conditions: Homo sapiens, SJSA-1;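 further: growth inhibition of human SJSA-1 cells, read out through a cell viability measurement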
Description: SANGER: Inhibition of human SJSA-1 cell growth in a cell viability assay.

[4] = system: GI-1; assay type: functional, cell-based, Homo sapiens; conditions: Homo sapiens, GI-1;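 further: growth inhibition of human GI-1 cells, measured with a cell viability readout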
Description: SANGER: Inhibition of human GI-1 cell growth in a cell viability assay.

[5] = system: OVCAR-4; assay type: functional, cell-based, Homo sapiens; conditions: Homo sapiens, OVCAR-4;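 further: growth inhibition of human OVCAR-4 cells, measured with a cell viability assay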
Description: SANGER: Inhibition of human OVCAR-4 cell growth in a cell viability assay.

[6] = system: HCC2157; assay type: functional, cell-based, Homo sapiens; conditions: Homo sapiens, HCC2157;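 further: growth inhibition of the cancer cell line, read out as cell viability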
Description: SANGER: Inhibition of human HCC2157 cell growth in a cell viability assay.

[7] = system: NCI-N87; assay type: functional, cell-based; conditions: Homo sapiens;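 further: growth inhibition of human NCI-N87 cells, read out with a cell viability assay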
Description: SANGER: Inhibition of human NCI-N87 cell growth in a cell viability assay.

[8] = system: NCI-H1092; assay type: functional, cell-based, Homo sapiens; conditions: Homo sapiens, NCI-H1092;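 further: cell growth inhibition measured with a cell viability assay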
Description: SANGER: Inhibition of human NCI-H1092 cell growth in a cell viability assay.

[9] = system: OCI-AML2; assay type: functional, cell-based, Homo sapiens; conditions: Homo sapiens, OCI-AML2;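 further: growth inhibition of OCI-AML2 cells, read out with a cell viability assay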
Description: SANGER: Inhibition of human OCI-AML2 cell growth in a cell viability assay.

[10] = system: NCI-H526; assay type: functional, cell-based, Homo sapiens; conditions: Homo sapiens, NCI-H526;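 further: growth inhibition of the human NCI-H526 cell line, measured by a cell viability assay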
Description: SANGER: Inhibition of human NCI-H526 cell growth in a cell viability assay.

[11] = system: PSN1; assay type: functional, cell-based, Homo sapiens; conditions: Homo sapiens, PSN1;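 further: suppression of growth of human PSN1 cells, read out by a cell viability assay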
Description: SANGER: Inhibition of human PSN1 cell growth in a cell viability assay.

[12] = system: no-10; assay type: functional, cell-based, Homo sapiens; conditions: Homo sapiens;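 further: growth inhibition of no-10 cells, read out with a cell viability assay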
Description: SANGER: Inhibition of human no-10 cell growth in a cell viability assay.

[13] = system: 8-MG-BA; assay type: functional, cell-based, Homo sapiens; conditions: Homo sapiens, 8-MG-BA;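 further: growth inhibition of 8-MG-BA cells, read out with a cell viability assay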
Description: SANGER: Inhibition of human 8-MG-BA cell growth in a cell viability assay.

[14] = system: HAL-01; assay type: functional, cell-based, Homo sapiens; conditions: Homo sapiens, HAL-01;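 further: growth inhibition of human HAL-01 cells, read out with a cell viability assay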
Description: SANGER: Inhibition of human HAL-01 cell growth in a cell viability assay.

[15] = system: LXF-289 cell line; assay type: functional, cell-based; conditions: Homo sapiens
Description: SANGER: Inhibition of human LXF-289 cell growth in a cell viability assay.

[16] = system: SCC-15; assay type: functional, cell-based, Homo sapiens; conditions: Homo sapiens, SCC-15;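 further: growth inhibition of SCC-15 cells, read out with a cell viability assay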
Description: SANGER: Inhibition of human SCC-15 cell growth in a cell viability assay.

[17] = system: TE-9; assay type: functional, cell-based, Homo sapiens; conditions: Homo sapiens, TE-9;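 further: cell growth inhibition, measured with a cell viability readout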
Description: SANGER: Inhibition of human TE-9 cell growth in a cell viability assay.

[18] = system: NCI-H1355; assay type: functional, cell-based, Homo sapiens; conditions: Homo sapiens, NCI-H1355;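 further: growth inhibition of human NCI-H1355 cells, read out by a cell viability assay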
Description: SANGER: Inhibition of human NCI-H1355 cell growth in a cell viability assay.

[19] = system: NCI-H720; assay type: functional, cell-based, Homo sapiens; conditions: Homo sapiens, NCI-H720;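 further: growth inhibition of human NCI-H720 cells determined by a cell viability assay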
Description: SANGER: Inhibition of human NCI-H720 cell growth in a cell viability assay.

[20] = system: MOLT-16; assay type: functional, cell-based, Homo sapiens; conditions: Homo sapiens, MOLT-16;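 further: growth inhibition of human MOLT-16 cells, read out with a cell viability assay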
Description: SANGER: Inhibition of human MOLT-16 cell growth in a cell viability assay.

[21] = system: SCH; assay type: functional, cell-based, Homo sapiens; conditions: Homo sapiens, SCH;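 further: growth inhibition of human SCH cells, read out in a cell viability assay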
Description: SANGER: Inhibition of human SCH cell growth in a cell viability assay.

[22] = system: SW 962; assay type: functional, cell-based, Homo sapiens; conditions: Homo sapiens, SW 962;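 further: growth inhibition of human SW962 cells, read out by a cell viability assay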
Description: SANGER: Inhibition of human SW962 cell growth in a cell viability assay.

[23] = system: NB6; assay type: functional, cell-based, Homo sapiens; conditions: Homo sapiens, NB6;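 further: growth inhibition of NB6 cells, read out by a cell viability assay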
Description: SANGER: Inhibition of human NB6 cell growth in a cell viability assay.

[24] = system: CCRF-CEM; assay type: functional, cell-based, Homo sapiens; conditions: Homo sapiens, CCRF-CEM;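 further: inhibition of CCRF-CEM cell growth, measured by a cell viability assay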
Description: SANGER: Inhibition of human CCRF-CEM cell growth in a cell viability assay.

[25] = system: RXF 393; assay type: functional, cell-based, Homo sapiens; conditions: Homo sapiens, RXF 393;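 further: growth inhibition of human RXF 393 cells, read out with a cell viability assay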
Description: SANGER: Inhibition of human RXF393 cell growth in a cell viability assay.

[26] = system: SK-NEP-1; assay type: functional, cell-based, Homo sapiens; conditions: Homo sapiens, SK-NEP-1;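 further: growth inhibition of human SK-NEP-1 cells, read out by a cell viability assay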
Description: SANGER: Inhibition of human SK-NEP-1 cell growth in a cell viability assay.

[27] = system: L-363; assay type: functional, cell-based, Homo sapiens; conditions: Homo sapiens, L-363
Description: SANGER: Inhibition of human L-363 cell growth in a cell viability assay.

[28] = system: GR-ST; assay type: functional, cell-based, Homo sapiens; conditions: Homo sapiens, GR-ST
Description: SANGER: Inhibition of human GR-ST cell growth in a cell viability assay.

[29] = system: HCC1187; assay type: functional, cell-based, Homo sapiens; conditions: Homo sapiens, HCC1187;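 further: growth inhibition of HCC1187 cells, read out with a cell viability assay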
Description: SANGER: Inhibition of human HCC1187 cell growth in a cell viability assay.

[30] = system: NB5; assay type: functional, cell-based, Homo sapiens; conditions: Homo sapiens, NB5;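 further: growth inhibition of NB5 cells, read out as cell viability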
Description: SANGER: Inhibition of human NB5 cell growth in a cell viability assay.

[31] = system: KP-N-YS; assay type: functional, cell-based, Homo sapiens; conditions: Homo sapiens, KP-N-YS;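 further: cell viability assay measuring inhibition of cell line growth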
Description: SANGER: Inhibition of human KP-N-YS cell growth in a cell viability assay.

[32] = system: RH-1; assay type: functional, cell-based, Homo sapiens; conditions: Homo sapiens, RH-1;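 further: growth inhibition of human RH-1 cells, read out with a cell viability assay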
Description: SANGER: Inhibition of human RH-1 cell growth in a cell viability assay.

[33] = system: EW-18; assay type: functional, cell-based, Homo sapiens; conditions: Homo sapiens, EW-18; read-out: IC50;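 further: growth inhibition of EW-18 cells, read out by a cell viability assay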
Description: SANGER: Inhibition of human EW-18 cell growth in a cell viability assay.

[34] = system: BV-173; assay type: functional, cell-based, Homo sapiens; conditions: Homo sapiens, BV-173
Description: SANGER: Inhibition of human BV-173 cell growth in a cell viability assay.

[35] = system: SNB-75; assay type: functional, cell-based, Homo sapiens; conditions: Homo sapiens, SNB-75;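 further: cell viability assay measuring growth inhibition of human SNB-75 cells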
Description: SANGER: Inhibition of human SNB75 cell growth in a cell viability assay.

[36] = system: TGBC1TKB; assay type: functional, cell-based, Homo sapiens; conditions: Homo sapiens, TGBC1TKB;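 further: growth inhibition of TGBC1TKB cells, read out by a cell viability assay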
Description: SANGER: Inhibition of human TGBC1TKB cell growth in a cell viability assay.

[37] = system: NEC8; assay type: functional, cell-based, Homo sapiens; conditions: Homo sapiens, NEC8;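 further: growth inhibition of human NEC8 cells, read out by a cell viability assay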
Description: SANGER: Inhibition of human NEC8 cell growth in a cell viability assay.

[38] = system: NCI-H1299; assay type: functional, cell-based; conditions: Homo sapiens;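 further: growth inhibition of human NCI-H1299 cells, read out by a cell viability assay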
Description: SANGER: Inhibition of human NCI-H1299 cell growth in a cell viability assay.

[39] = system: SK-PN-DW; assay type: functional, cell-based, Homo sapiens; conditions: Homo sapiens, SK-PN-DW;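 further: growth inhibition measured with a viability assay on these cells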
Description: SANGER: Inhibition of human SK-PN-DW cell growth in a cell viability assay.

[40] = system: L-428; assay type: functional, cell-based, Homo sapiens; conditions: Homo sapiens, L-428
Description: SANGER: Inhibition of human L-428 cell growth in a cell viability assay.

[41] = system: MV4-11; assay type: functional, cell-based, Homo sapiens, MV-4-11; conditions: Homo sapiens, MV4-11;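 further: cell viability readout measuring growth inhibition of human MV-4-11 cells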
Description: SANGER: Inhibition of human MV-4-11 cell growth in a cell viability assay.

[42] = system: LB1047-RCC; assay type: functional, cell-based, Homo sapiens; conditions: Homo sapiens, LB1047-RCC;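 further: inhibition of cell growth, determined with a cell viability assay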
Description: SANGER: Inhibition of human LB1047-RCC cell growth in a cell viability assay.

[43] = system: LB771-HNC; assay type: functional, cell-based; conditions: Homo sapiens;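 further: growth inhibition of LB771-HNC human cells, read out with a cell viability assay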
Description: SANGER: Inhibition of human LB771-HNC cell growth in a cell viability assay.

[44] = system: D-247MG; assay type: functional, cell-based; conditions: Homo sapiens
Description: SANGER: Inhibition of human D-247MG cell growth in a cell viability assay.

[45] = system: ES5; assay type: functional, cell-based, Homo sapiens; conditions: Homo sapiens, ES5;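 further: growth inhibition of human ES5 cells, read out by a cell viability assay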
Description: SANGER: Inhibition of human ES5 cell growth in a cell viability assay.

[46] = system: U-87 MG; assay type: functional, cell-based, Homo sapiens, U-87MG ATCC; conditions: Homo sapiens, U-87 MG;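 further: growth inhibition of the cells measured with a viability assay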
Description: SANGER: Inhibition of human U-87-MG cell growth in a cell viability assay.

[47] = system: TE-5; assay type: functional, cell-based, Homo sapiens; conditions: Homo sapiens, TE-5;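 further: inhibition of cell growth, read out by a cell viability assay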
Description: SANGER: Inhibition of human TE-5 cell growth in a cell viability assay.

[48] = system: MHH-NB-11; assay type: functional, cell-based, Homo sapiens; conditions: Homo sapiens, MHH-NB-11;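 further: growth inhibition of human MHH-NB-11 cells, read out by a cell viability assay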
Description: SANGER: Inhibition of human MHH-NB-11 cell growth in a cell viability assay.

[49] = system: OCUB-M; assay type: functional, cell-based; conditions: Homo sapiens;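 further: growth inhibition of the cancer cell line, read out through a cell viability assay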
Description: SANGER: Inhibition of human OCUB-M cell growth in a cell viability assay.

[50] = system: GAK; assay type: functional, cell-based, Homo sapiens; conditions: Homo sapiens, GAK;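 further: cell growth inhibition read out by a cell viability assay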
Description: SANGER: Inhibition of human GAK cell growth in a cell viability assay.

## CC(C)C[C@H](NC(=O)[C@H](Cc1ccccc1)NC(=O)c1cnccn1)B(O)O [BORTEZOMIB]
[1]
  IC50: > 0.02 µM
[2]
  IC50: 0.000889 µM
[3]
  IC50: 0.00221 µM
[4]
  IC50: 0.000764 µM
[5]
  IC50: 0.000289 µM
[6]
  IC50: > 0.02 µM
[7]
  IC50: > 0.02 µM
[8]
  IC50: 0.0018 µM
[9]
  IC50: > 0.02 µM
[10]
  IC50: > 0.02 µM
[11]
  IC50: 0.00101 µM
[12]
  IC50: 0.00021 µM
[13]
  IC50: 0.00025 µM
[14]
  IC50: 0.00118 µM
[15]
  IC50: 0.000269 µM
[16]
  IC50: > 0.02 µM
[17]
  IC50: 0.000182 µM
[18]
  IC50: 0.000895 µM
[19]
  IC50: > 0.02 µM
[20]
  IC50: 0.00289 µM
[21]
  IC50: > 0.02 µM
[22]
  IC50: 0.00521 µM
[23]
  IC50: 0.00848 µM
[24]
  IC50: 0.00113 µM
[25]
  IC50: 0.000914 µM
[26]
  IC50: 0.00901 µM
[27]
  IC50: 0.0077 µM
[28]
  IC50: > 0.02 µM
[29]
  IC50: 0.00354 µM
[30]
  IC50: 0.00227 µM
[31]
  IC50: > 0.02 µM
[32]
  IC50: > 0.02 µM
[33]
  IC50: 0.018 µM
[34]
  IC50: > 0.02 µM
[35]
  IC50: 0.000912 µM
[36]
  IC50: 0.00171 µM
[37]
  IC50: 0.00335 µM
[38]
  IC50: > 0.02 µM
[39]
  IC50: 0.00314 µM
[40]
  IC50: > 0.02 µM
[41]
  IC50: 0.00182 µM
[42]
  IC50: 0.00257 µM
[43]
  IC50: 0.000474 µM
[44]
  IC50: 0.000413 µM
[45]
  IC50: 0.0104 µM
[46]
  IC50: 0.0168 µM
[47]
  IC50: 0.000865 µM
[48]
  IC50: 0.00491 µM
[49]
  IC50: 0.000447 µM

## O=C(NCCCNc1nc(Nc2cccc(NC(=O)N3CCCC3)c2)ncc1I)c1cccs1 [BX-795]
[1]
  IC50: > 5 µM
[2]
  IC50: 2.29 µM
[3]
  IC50: > 5 µM
[4]
  IC50: > 5 µM
[5]
  IC50: > 5 µM
[6]
  IC50: > 5 µM
[7]
  IC50: > 5 µM
[8]
  IC50: > 5 µM
[9]
  IC50: > 5 µM
[10]
  IC50: > 5 µM
[11]
  IC50: 2.79 µM
[12]
  IC50: > 5 µM
[13]
  IC50: 1.96 µM
[50]
  IC50: > 5 µM
[14]
  IC50: > 5 µM
[15]
  IC50: 0.657 µM
[16]
  IC50: > 5 µM
[17]
  IC50: > 5 µM
[18]
  IC50: > 5 µM
[20]
  IC50: 3.17 µM
[21]
  IC50: > 5 µM
[22]
  IC50: 2.34 µM
[23]
  IC50: 2.74 µM
[24]
  IC50: > 5 µM
[25]
  IC50: 3.41 µM
[26]
  IC50: 1.65 µM
[27]
  IC50: 1.18 µM
[28]
  IC50: 4.98 µM
[29]
  IC50: 2.9 µM
[30]
  IC50: 2.94 µM
[31]
  IC50: > 5 µM
[32]
  IC50: 1.7 µM
[35]
  IC50: > 5 µM
[36]
  IC50: > 5 µM
[37]
  IC50: > 5 µM
[38]
  IC50: > 5 µM
[39]
  IC50: > 5 µM
[40]
  IC50: > 5 µM
[41]
  IC50: 0.0368 µM
[42]
  IC50: 1.29 µM
[43]
  IC50: > 5 µM
[44]
  IC50: 3.2 µM
[45]
  IC50: 1.19 µM
[46]
  IC50: > 5 µM
[47]
  IC50: > 5 µM
[48]
  IC50: > 5 µM
[49]
  IC50: > 5 µM

## CS(=O)(=O)N1CCN(Cc2cc3nc(-c4cccc5[nH]ncc45)nc(N4CCOCC4)c3s2)CC1 [PICTILISIB]
[1]
  IC50: > 4 µM
[2]
  IC50: 0.865 µM
[3]
  IC50: 3.71 µM
[4]
  IC50: > 4 µM
[5]
  IC50: > 4 µM
[6]
  IC50: 2.33 µM
[7]
  IC50: 2.13 µM
[8]
  IC50: > 4 µM
[9]
  IC50: > 4 µM
[10]
  IC50: 1.91 µM
[11]
  IC50: > 4 µM
[12]
  IC50: > 4 µM
[13]
  IC50: > 4 µM
[50]
  IC50: > 4 µM
[14]
  IC50: 0.207 µM
[15]
  IC50: 0.448 µM
[16]
  IC50: > 4 µM
[17]
  IC50: > 4 µM
[18]
  IC50: > 4 µM
[20]
  IC50: > 4 µM
[21]
  IC50: > 4 µM
[22]
  IC50: 3.73 µM
[23]
  IC50: > 4 µM
[24]
  IC50: > 4 µM
[25]
  IC50: > 4 µM
[26]
  IC50: 0.726 µM
[27]
  IC50: 0.798 µM
[28]
  IC50: > 4 µM
[29]
  IC50: > 4 µM
[30]
  IC50: 0.957 µM
[31]
  IC50: > 4 µM
[32]
  IC50: > 4 µM
[35]
  IC50: 2.02 µM
[36]
  IC50: > 4 µM
[37]
  IC50: 0.654 µM
[38]
  IC50: > 4 µM
[39]
  IC50: > 4 µM
[40]
  IC50: > 4 µM
[41]
  IC50: 0.724 µM
[42]
  IC50: 0.523 µM
[43]
  IC50: > 4 µM
[44]
  IC50: > 4 µM
[45]
  IC50: 0.0502 µM
[46]
  IC50: > 4 µM
[47]
  IC50: > 4 µM
[48]
  IC50: > 4 µM
[49]
  IC50: > 4 µM
